{"source": "patent US10835513B2", "about": "“Methods and treatments for the learning and memory deficits associated with Noonan syndrome” (The Regents of the University of California, priority 2013, dated 2020)", "system": "hippocampal slices from the AAV-PTPN11^D61G-infected mice", "assay": "5 TBS-induced CA1 Schaffer collateral LTP, extracellular field recordings, bath-applied SL327", "type": "cell-based", "details": "SL327 1 μM applied 1 hr before LTP induction and kept in bath", "source_text": "FIG. 3 are graphs showing that PTPN11^D61G overexpression induces learning and memory and LTP deficits that can be reversed by MEK inhibition. Panel a) AAV5-PTPN11^D61G infection results in overexpression of SHP2^D61G. […] Panel b) PTPN11^D61G overexpression increases basal Erk activity (phospho-Erk level) and prevents further Eric activation in response to TBS. Left, Representative immunoblot showing p-Erk (upper) and total Eric (lower) in PTPN11^D61G-expressing slices and GFP-expressing slices. Slices were prepared 1 hr after TBS. […] Panels c and d) MEK inhibitor SL327 (CAS 305350-87-2) reverses spatial memory deficits in PTPN11^D61G-overexpressing mice. […]\nFor extracellular recordings of field excitatory postsynaptic potentials (fEPSP), sagittal slices (400 μm) were prepared with a vibratome (VT1000S, Leica) in ice-cold artificial cerebrospinal fluid (ACSF). […] Recording was performed in a submerged chamber perfused with ACSF (32° C.). fEPSPs were recorded with platinum-iridium electrodes placed in the CA1 stratum radiatum. […] Baseline responses were measured with stimulation (0.017 Hz, 0.1 ms pulse duration) at an intensity (typically 20-30 μA) that evoked a response that was approximately one third of the maximum evoked response. […] Initial fEPSP slopes were measured and normalized to the average of baseline (Clampfit 10.2).", "data": [{"smiles": "N#C/C(=C(/N)Sc1ccc(N)cc1)c1ccccc1C(F)(F)F", "note": "[SL327]", "values": [{"measurement": "Average % fEPSP changes (last 10 minutes of recording), 5 TBS-induced LTP", "setting": "GFP slices", "result": "146.2±4.37", "unit": "%"}, {"measurement": "Average % fEPSP changes (last 10 minutes of recording), 5 TBS-induced LTP", "setting": "PTPN11^D61G slices", "result": "146.1±4.36", "unit": "%"}]}]}
